Test results taken from patent US9980943B2, “Methods of treating muscular dystrophy” (BOARD OF REGENTS OF THE NEVADA SYSTEM OF HIGHER EDUCATION, …, priority 2013, dated 2018).
Where two headings read alike, the source gives them in different places.

Assays:
Type in all cases: cell-based, mouse
[1] = system: α7 integrin (LacZ reporter in α7βgal+/− myoblasts); assay: Myoblast α7+/LacZ integrin FDG assay (Burkin assay in myoblasts, 96-well); details: α7+/LacZ myoblasts, 96-well; for fold induction at 0.5 µM / fold induction at 1 µM / fold induction at 5 µM / fold induction at 10 µM / fold induction at 20 µM / fold induction at 40 µM: Mus musculus, Myoblast, 48 h
[2] = system: α7 integrin (LacZ reporter in α7+/LacZ myotubes); assay: Myotube α7 integrin FDG assay (Burkin assay in myotubes, 96-well); details: myotubes; for fold induction at 0.5 µM / fold induction at 1 µM / fold induction at 5 µM / fold induction at 10 µM / fold induction at 20 µM / fold induction at 40 µM: Mus musculus, Myotube
[3] = system: β-galactosidase in CMV-LacZ C2C12 myotubes; assay: CMV-LacZ secondary screen in C2C12 myotubes (β-Gal stabilizing assay); details: C2C12 CMV-LacZ myotubes, fold relative to DMSO; for fold induction at 5 µM / fold induction at 10 µM / fold induction at 20 µM / fold induction at 40 µM: Mus musculus; for fold induction at 5 µM: C2C12, read-out: CMV-LACZ in Myotubes, signal relative to DMSO, 5 uM; for fold induction at 10 µM: C2C12, read-out: CMV-LACZ in Myotubes, signal relative to DMSO, 10 uM; for fold induction at 20 µM: C2C12, read-out: CMV-LACZ in Myotubes, signal relative to DMSO, 20 uM; for fold induction at 40 µM: C2C12, read-out: CMV-LACZ in Myotubes, signal relative to DMSO, 40 uM
Procedure, shortened: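 Dose-response runs at 0.5–40 μM (0.5, 1, 5, 10, 20, 40 μM; N=2 per point) used a clonal C2C12 line carrying CMV-LacZ. Cells were assayed as myoblasts or as differentiated myotubes, and β-galactosidase levels were read with the FDG fluorogenic substrate.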

Row | Structure (SMILES) | Burkin Assay in Myoblasts, signal relative to DMSO ([1]; 0.5 uM) | Burkin Assay in Myoblasts, signal relative to DMSO ([1]; 1 uM) | Burkin Assay in Myoblasts, signal relative to DMSO ([1]; 5 uM) | Burkin Assay in Myoblasts, signal relative to DMSO ([1]; 10 uM) | Burkin Assay in Myoblasts, signal relative to DMSO ([1]; 20 uM) | Burkin Assay in Myoblasts, signal relative to DMSO ([1]; 40 uM) | Burkin Assay in Myotubes, α7 integrin LacZ reporter signal relative to DMSO ([2]; 0.5 uM) | Burkin Assay in Myotubes, α7 integrin LacZ reporter signal relative to DMSO ([2]; 1 uM) | Burkin Assay in Myotubes, α7 integrin LacZ reporter signal relative to DMSO ([2]; 5 uM) | Burkin Assay in Myotubes, α7 integrin LacZ reporter signal relative to DMSO ([2]; 10 uM) | Burkin Assay in Myotubes, α7 integrin LacZ reporter signal relative to DMSO ([2]; 20 uM) | Burkin Assay in Myotubes, α7 integrin LacZ reporter signal relative to DMSO ([2]; 40 uM) | CMV-LACZ in Myotubes, signal relative to DMSO ([3]; 5 uM) | CMV-LACZ in Myotubes, signal relative to DMSO ([3]; 10 uM) | CMV-LACZ in Myotubes, signal relative to DMSO ([3]; 20 uM) | CMV-LACZ in Myotubes, signal relative to DMSO ([3]; 40 uM) | also measured
1 | Cc1ccc(NS(=O)(=O)c2ccc3c(c2)NC(=O)CCS3)c(Br)c1 [MLS001095231-01] | 0.9692 | 0.9682 | 0.9242 | 0.8637 | 0.9197 | 0.728 | 1.005 | 0.9382 | 1.022 | 0.9695 | 0.9863 | 0.8356 | 1.035 | 0.7409 | 0.9181 | 0.6229 | 
2 | Cc1c(C(=O)N2CCCCC2)c(S(=O)(=O)Nc2cccc(Br)c2)c(C)n1C [MLS001096269-01] |  |  |  |  |  |  |  |  |  |  |  |  |  |  |  |  | fold induction at 0.5 µM ([1]; 0.5 uM, read-out: Burkin Assay in Myoblasts, value relative to DMSO): 1.04; fold induction at 1 µM ([1]; 1 uM, read-out: Burkin Assay in Myoblasts, value relative to DMSO): 1.01; fold induction at 5 µM ([1]; 5 uM, read-out: Burkin Assay in Myoblasts, value relative to DMSO): 0.941; fold induction at 10 µM ([1]; 10 uM, read-out: Burkin Assay in Myoblasts, value relative to DMSO): 1.03; fold induction at 20 µM ([1]; 20 uM, read-out: Burkin Assay in Myoblasts, value relative to DMSO): 1.05; fold induction at 40 µM ([1]; 40 uM, read-out: Burkin Assay in Myoblasts, value relative to DMSO): 1.2; fold induction at 0.5 µM ([2]; 0.5 uM, read-out: Burkin Assay in Myotubes (signal relative to DMSO)): 0.999; fold induction at 1 µM ([2]; 1 uM, read-out: Burkin Assay in Myotubes (signal relative to DMSO)): 1.09; fold induction at 5 µM ([2]; 5 uM, read-out: Burkin Assay in Myotubes (signal relative to DMSO)): 1.31; fold induction at 10 µM ([2]; 10 uM, read-out: Burkin Assay in Myotubes (signal relative to DMSO)): 1.12; fold induction at 20 µM ([2]; 20 uM, read-out: Burkin Assay in Myotubes (signal relative to DMSO)): 1.13; fold induction at 40 µM ([2]; 40 uM, read-out: Burkin Assay in Myotubes (signal relative to DMSO)): 0.912; fold induction at 5 µM [3]: 1.09; fold induction at 10 µM [3]: 0.74; fold induction at 20 µM [3]: 0.986; fold induction at 40 µM [3]: 0.775
3 | O=C(Cn1cccc1C(=O)c1ccccc1)NCCCc1ccccc1 [MLS001110618-01] | 0.9525 | 1.03 | 0.9228 | 1.005 | 0.9713 | 1.083 | 0.9526 | 1.067 | 1.114 | 1.252 | 1.0381 | 0.9463 | 0.8954 | 0.9336 | 1.0555 | 0.4765 | 
4 | COc1ccc(CCNC(=O)c2nn(C)c3c2CS(=O)(=O)c2ccccc2-3)cc1OC [MLS001117140-01] |  |  |  |  |  |  |  |  |  |  |  |  |  |  |  |  | fold induction at 0.5 µM ([1]; 0.5 uM, read-out: Burkin Assay in Myoblasts, signal relative to DMSO): 1.03; fold induction at 1 µM ([1]; 1 uM, read-out: Burkin Assay in Myoblasts, signal relative to DMSO): 1.07; fold induction at 5 µM ([1]; 5 uM, read-out: Burkin Assay in Myoblasts, signal relative to DMSO): 0.909; fold induction at 10 µM ([1]; 10 uM, read-out: Burkin Assay in Myoblasts, signal relative to DMSO): 0.901; fold induction at 20 µM ([1]; 20 uM, read-out: Burkin Assay in Myoblasts, signal relative to DMSO): 0.922; fold induction at 40 µM ([1]; 40 uM, read-out: Burkin Assay in Myoblasts, signal relative to DMSO): 0.942; fold induction at 0.5 µM ([2]; 0.5 uM, read-out: Burkin Assay in Myotubes, α7 integrin LacZ reporter signal relative to DMSO): 0.932; fold induction at 1 µM ([2]; 1 uM, read-out: Burkin Assay in Myotubes, α7 integrin LacZ reporter signal relative to DMSO): 1.12; fold induction at 5 µM ([2]; 5 uM, read-out: Burkin Assay in Myotubes, α7 integrin LacZ reporter signal relative to DMSO): 1.09; fold induction at 10 µM ([2]; 10 uM, read-out: Burkin Assay in Myotubes, α7 integrin LacZ reporter signal relative to DMSO): 1.37; fold induction at 20 µM ([2]; 20 uM, read-out: Burkin Assay in Myotubes, α7 integrin LacZ reporter signal relative to DMSO): 1.09; fold induction at 40 µM ([2]; 40 uM, read-out: Burkin Assay in Myotubes, α7 integrin LacZ reporter signal relative to DMSO): 1.06; fold induction at 5 µM [3]: 0.951; fold induction at 10 µM [3]: 1.12; fold induction at 20 µM [3]: 1.38; fold induction at 40 µM [3]: 1.17
5 | Cc1cccn2c(=O)c3cc(C(=O)NC4CCCCC4)n(C)c3nc12 [MLS001117351-01] | 1.103 | 1.105 | 0.7718 | 0.7445 | 0.7137 | 0.4323 | 1.025 | 0.9924 | 0.8315 | 0.9463 | 0.7669 | 0.6986 | 1.016 | 1.088 | 1.1481 | 0.8952 | 
6 | COc1ccc(C)cc1NC(=O)c1ccc2c(O)c(S(=O)(=O)c3ccccc3)c(=O)[nH]c2c1 [MLS001122718-01] | 1.1056 | 1.041 | 1.033 | 0.9092 | 0.9923 | 0.9332 | 1.011 | 0.9435 | 1.069 | 1.106 | 1.089 | 0.9804 | 0.8862 | 0.9662 | 0.9567 | 0.89 | 
7 | COc1cc(NC(=O)CN(C)S(=O)(=O)c2ccc3c(c2)CC(C)N3C(C)=O)cc(OC)c1OC (stereo not shown) [MLS001122792-01] |  |  |  |  |  |  |  |  |  |  |  |  | 0.8137 | 0.9675 | 0.9969 | 0.7254 | Burkin Assay in Myoblasts, value relative to DMSO ([1]; 0.5 uM): 0.9702; Burkin Assay in Myoblasts, value relative to DMSO ([1]; 1 uM): 0.8787; Burkin Assay in Myoblasts, value relative to DMSO ([1]; 5 uM): 0.913; Burkin Assay in Myoblasts, value relative to DMSO ([1]; 10 uM): 0.8643; Burkin Assay in Myoblasts, value relative to DMSO ([1]; 20 uM): 0.9989; Burkin Assay in Myoblasts, value relative to DMSO ([1]; 40 uM): 0.8058; Burkin Assay in Myotubes (signal relative to DMSO) ([2]; 0.5 uM): 1.192; Burkin Assay in Myotubes (signal relative to DMSO) ([2]; 1 uM): 1.032; Burkin Assay in Myotubes (signal relative to DMSO) ([2]; 5 uM): 1.102; Burkin Assay in Myotubes (signal relative to DMSO) ([2]; 10 uM): 0.6414; Burkin Assay in Myotubes (signal relative to DMSO) ([2]; 20 uM): 1.068; Burkin Assay in Myotubes (signal relative to DMSO) ([2]; 40 uM): 0.8522
